Experimental findings from ChEMBL document CHEMBL4354835, “Selective Blockade of Neuronal BK (α + β4) Channels Preventing Epileptic Seizure” (J Med Chem, 2020) are described below.

The target of assay [1] is KCNMA1/KCNMB4 (Homo sapiens, UniProt Q12791+Q86W47). As to the kind of experiment: Inhibition of human BK alpha/beta4 channel expressed in HEK293T cells assessed as K+ outward current fraction at 10 uM at -80 mV holding potential by whole cell patch clamp method relative to control. Format: cell-based.
Assay [2] addresses T1, Calcium-activated potassium channel subunit beta-4 (Homo sapiens, UniProt Q86W47).
T1 sequence (Q86W47 whole entry): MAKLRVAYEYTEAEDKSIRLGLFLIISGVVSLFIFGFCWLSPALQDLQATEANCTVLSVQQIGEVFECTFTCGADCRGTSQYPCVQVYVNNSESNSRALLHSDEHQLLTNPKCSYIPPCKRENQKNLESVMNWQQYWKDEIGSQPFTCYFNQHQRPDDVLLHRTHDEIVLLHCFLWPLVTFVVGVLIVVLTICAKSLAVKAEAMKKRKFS
As to the kind of experiment: Binding affinity to NT-495 fluorophore reagent labelled human BK beta4 (45 to 166 residues) incubated for 30 mins by microscale thermophoresis assay. (In general: Microscale thermophoresis detects binding through changes in fluorescence in a small temperature gradient.)

Structures are written as SMILES.

Broadly, the Kd is the concentration at which binding is half-saturated. Consider `CC[C@H](C)[C@H](NC(=O)[C@H](CC(C)C)NC(=O)CNC(=O)[C@H](Cc1ccccc1)NC(=O)[C@H](CO)NC(=O)CN)C(=O)N[C@@H](CCCCN)C(=O)N[C@H](C(=O)N[C@@H](CCCCN)C(=O)N[C@H]1CSSC[C@@H]2NC(=O)[C@H](CCCCN)NC(=O)CNC(=O)[C@H](CCC(N)=O)NC(=O)CNC(=O)[C@H](CO)NC(=O)CNC(=O)[C@H]([C@@H](C)O)NC(=O)[C@H](C(C)C)NC(=O)[C@H](CCCCN)NC(=O)[C@H](CCCCN)NC(=O)[C@@H]3CSSC[C@@H](C(=O)N[C@@H](Cc4ccc(O)cc4)C(=O)O)N[C@@H](CCCNC(=N)N)C(=O)[C@H](CSSC[C@H](NC(=O)[C@H](CCCCN)NC(=O)[C@H](CO)NC(=O)[C@H](CO)NC(=O)[C@H](C)NC(=O)[C@H](Cc4ccccc4)NC1=O)C(=O)N[C@@H](Cc1c[nH]c4ccccc14)C(=O)N[C@@H]([C@@H](C)O)C(=O)N[C@@H](C)C(=O)N3)N[C@@H](CCC(N)=O)C(=O)NC(=O)[C@H](CC(N)=O)NC(=O)[C@H](CC(N)=O)NC(=O)[C@H](CCC(N)=O)NC2=O)C(C)C`, for which the Ratio in assay [1] came to 0.56. In addition, the Kd in assay [2] (read-out: Kd) was found to be 1100 µM.
On to `CC[C@H](C)[C@H](NC(=O)[C@H](CC(C)C)NC(=O)CNC(=O)[C@H](Cc1ccccc1)NC(=O)[C@H](CO)NC(=O)CN)C(=O)N[C@@H](CC(=O)O)C(=O)N[C@H](C(=O)N[C@@H](CCCCN)C(=O)N[C@H]1CSSC[C@@H]2NC(=O)[C@H](CCCCN)NC(=O)CNC(=O)[C@H](CCC(N)=O)NC(=O)CNC(=O)[C@H](CO)NC(=O)CNC(=O)[C@H]([C@@H](C)O)NC(=O)[C@H](C(C)C)NC(=O)[C@H](CCCCN)NC(=O)[C@H](CCCCN)NC(=O)[C@@H]3CSSC[C@@H](C(=O)N[C@@H](Cc4ccc(O)cc4)C(=O)O)N[C@@H](CCCNC(=N)N)C(=O)[C@H](CSSC[C@H](NC(=O)[C@H](CCC(=O)O)NC(=O)[C@H](CO)NC(=O)[C@H](CO)NC(=O)[C@H](C)NC(=O)[C@H](Cc4ccccc4)NC1=O)C(=O)N[C@@H](Cc1c[nH]c4ccccc14)C(=O)N[C@@H](C(C)C)C(=O)N[C@@H](C)C(=O)N3)N[C@@H](CCC(N)=O)C(=O)NC(=O)[C@H](CC(N)=O)NC(=O)[C@H](CC(N)=O)NC(=O)[C@H](CCC(N)=O)NC2=O)C(C)C`, for which the Ratio in assay [1] stood at 0.36. In addition, the Kd in assay [2] (read-out: Kd) came out at 550 µM.
Consider `CC[C@H](C)[C@H](NC(=O)[C@H](CC(C)C)NC(=O)CNC(=O)[C@H](Cc1ccccc1)NC(=O)[C@H](CO)NC(=O)CN)C(=O)N[C@@H](CC(=O)O)C(=O)N[C@H](C(=O)N[C@@H](CCCCN)C(=O)N[C@H]1CSSC[C@@H]2NC(=O)[C@H](CCC(=O)O)NC(=O)CNC(=O)[C@H](CCC(N)=O)NC(=O)CNC(=O)[C@H](CO)NC(=O)CNC(=O)[C@H]([C@@H](C)O)NC(=O)[C@H](C(C)C)NC(=O)[C@H](CCCCN)NC(=O)[C@H](CCCCN)NC(=O)[C@@H]3CSSC[C@@H](C(=O)N[C@@H](Cc4ccc(O)cc4)C(=O)O)N[C@@H](CC(=O)O)C(=O)[C@H](CSSC[C@H](NC(=O)[C@H](CCC(=O)O)NC(=O)[C@H](CO)NC(=O)[C@H](CO)NC(=O)[C@H](C)NC(=O)[C@H](Cc4ccccc4)NC1=O)C(=O)N[C@@H](Cc1c[nH]c4ccccc14)C(=O)N[C@@H]([C@@H](C)O)C(=O)N[C@@H](C)C(=O)N3)N[C@@H](CCC(N)=O)C(=O)NC(=O)[C@H](CC(N)=O)NC(=O)[C@H](CC(N)=O)NC(=O)[C@H](CCC(N)=O)NC2=O)C(C)C`, for which the Ratio in assay [1] worked out at 0.8. Further, the Kd result in assay [2] was “Not Active”.
